In PubChem BioAssay (NCI):
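Following 48 hours of exposure in 96-well plates, responses at five concentrations were used to interpolate endpoints linearly. Abbreviation: GI50, concentration required for 50% inhibition of growth. TGI denotes the concentration required for complete inhibition of growth.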

Legend:
Assay in all cases: NCI tumour cell line growth inhibition, 48 h
HT29 colon = tested on: HT29 colon
RXF 393 renal = tested on: RXF 393 renal
COLO 205 colon = tested on: COLO 205 colon
MDA-MB-231 breast = tested on: MDA-MB-231 breast
MALME-3M melanoma = tested on: MALME-3M melanoma
HCT-15 colon = tested on: HCT-15 colon
HOP-62 NSCLC = tested on: HOP-62 NSCLC
CCRF-CEM leukemia = tested on: CCRF-CEM leukemia
U251 CNS = tested on: U251 CNS
SNB-19 CNS = tested on: SNB-19 CNS

| Compound | GI50 (HT29 colon) [µM] | TGI (HT29 colon) [µM] | GI50 (RXF 393 renal) [µM] | TGI (RXF 393 renal) [µM] | GI50 (COLO 205 colon) [µM] | TGI (COLO 205 colon) [µM] | GI50 (MDA-MB-231 breast) [µM] | TGI (MDA-MB-231 breast) [µM] | GI50 (MALME-3M melanoma) [µM] | TGI (MALME-3M melanoma) [µM] | GI50 (HCT-15 colon) [µM] | TGI (HCT-15 colon) [µM] | GI50 (HOP-62 NSCLC) [µM] | TGI (HOP-62 NSCLC) [µM] | GI50 (CCRF-CEM leukemia) [µM] | GI50 (U251 CNS) [µM] | TGI (U251 CNS) [µM] | GI50 (SNB-19 CNS) [µM] | TGI (SNB-19 CNS) [µM] | TGI (CCRF-CEM leukemia) [µM] |
| --- | --- | --- | --- | --- | --- | --- | --- | --- | --- | --- | --- | --- | --- | --- | --- | --- | --- | --- | --- | --- |
| O=C(COc1cccc(/C=C2\CSc3ccccc3C2=O)c1)c1ccc(Cl)cc1 | 1.43 | 2.9 | 2.67 | 6.73 | 2.89 | 7.35 | 4.48 | 14.8 | 2.01 | 4.76 | 1.92 | 5.37 | 2.15 | 6.12 | 0.325 | 1.42 | 2.72 | 3.18 | 9.38 | – |
| C[C@H](N)C(=O)N1C[C@H](CCCB(O)O)[C@](N)(C(=O)O)C1 | > 100 | > 100 | > 100 | > 100 | > 100 | > 100 | > 100 | > 100 | > 100 | > 100 | > 100 | > 100 | > 100 | > 100 | > 100 | > 100 | > 100 | > 100 | > 100 | > 100 |
| CCOC(=O)Nc1nc2c(C)cccc2s1 | 46.8 | > 100 | > 100 | > 100 | > 100 | > 100 | 36.1 | > 100 | 56.3 | > 100 | 44.3 | > 100 | > 100 | > 100 | 54.8 | 77.5 | > 100 | > 100 | > 100 | > 100 |
| C=C1C[C@@]2(C)C(CC[C@]3(C)C2CC=C2C4CC(C)(C)C[C@@H](OC(=O)/C(C)=C\C)[C@]4(C(=O)O)CC[C@]23C)C(C)(C)C1=O (some centres undefined) | 2.55 | 6.81 | 1.76 | 3.57 | 3.59 | 17.6 | 5.96 | 31.4 | 3.89 | 15.6 | 2.23 | 7.88 | 3.43 | 22.3 | 2.11 | 2.46 | 6.83 | 4.65 | 17.4 | 22.9 |
| NS(=O)(=O)c1ccc(NC(=O)c2cccc3cc4ccccc4nc23)cc1 | – | > 100 | – | > 100 | – | > 100 | – | > 100 | – | > 100 | – | > 100 | – | > 100 | – | – | > 100 | – | > 100 | > 100 |
